This passage reports melting point results from US7312356B2, “Medicament” (Cyclacel Limited, priority 2001, dated 2007).

The compound `CC(=O)OC[C@@]1(C(=O)O)CC[C@]2(C)C(CCC3[C@@]4(C)CC[C@H](OC(C)=O)C(C)(C)C4CC[C@]32C)C1=O` (stereo partly drawn) [(7), 3β,28-Diacetoxy-18-oxo-19,20,21,29,30-pentanorlupan-22-oic Acid] had a melting point of 142 to 144 °C.

Usually melting point stands for the temperature of the solid-liquid transition.
